According to ChEMBL document CHEMBL3352134, “In silico and pharmacological screenings identify novel serine racemase inhibitors” (Bioorg Med Chem Lett, 2014):

How the values were obtained:
Serine racemase [1] = molecular target: T1, Serine racemase (Homo sapiens, UniProt Q9GZT4); experiment: Binding affinity to serine recemase (unknown origin)
T1 sequence (Q9GZT4 whole entry): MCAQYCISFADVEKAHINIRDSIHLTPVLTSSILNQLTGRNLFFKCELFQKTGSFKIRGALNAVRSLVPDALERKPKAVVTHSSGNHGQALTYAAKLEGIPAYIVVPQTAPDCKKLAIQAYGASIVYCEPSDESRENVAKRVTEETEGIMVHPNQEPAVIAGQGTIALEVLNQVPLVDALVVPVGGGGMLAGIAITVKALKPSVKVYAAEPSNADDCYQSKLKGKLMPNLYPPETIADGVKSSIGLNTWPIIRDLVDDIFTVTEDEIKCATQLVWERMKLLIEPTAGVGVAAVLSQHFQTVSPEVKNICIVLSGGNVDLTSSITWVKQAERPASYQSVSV

[2] = molecular target: T2, Serine racemase (Homo sapiens) (UniProt Q9GZT4); experiment: Inhibition of full length human recombinant serine recemase C2DC6D mutant expressed in Escherichia coli BL21 (DE3) assessed as D-serine production at 1 mM after 10 mins by Saccharomyces cerevisiae Dsd1SC based D-serine detection assay
T2 sequence (whole entry): T1 sequence (Q9GZT4 whole entry)

Serine racemase [3] = molecular target: Serine racemase (Homo sapiens, UniProt Q9GZT4); experiment: Inhibition of full length human recombinant serine recemase C2DC6D mutant expressed in Escherichia coli BL21 (DE3) assessed as D-serine production after 10 mins by Saccharomyces cerevisiae Dsd1SC based D-serine detection assay

SMILES	Ki (Serine racemase [1]) [µM]	inhibition [2] [%]	IC50 (Serine racemase [3]) [µM]
N[C@H](C(=O)O)[C@@H](O)C(=O)O	11		
NCC(=O)O [GLYCINE]	366		
O=C(O)CC(=O)O [MALONIC ACID]	33	59	1310
